# Test results as given in publication PMC5730604.
# Like-named read-outs stand apart in the source and are kept apart here. Starred links: 1 amine or outer side, 2 acyl side, 3 side chain; linkers in the order of their positions; H or OH if unused. Positions of bridges follow the written chain, without caps; N, C: chain ends. Non-standard residues stand in square brackets, D forms with d. Residues, ends and D or L forms follow the SMILES beside them. Groups on a side chain read outwards from the residue. *: point of attachment. PEG28 = NCCOCCOCCOCCOCCOCCOCCOCCOCCOCCOCCOCCOCCOCCOCCOCCOCCOCCOCCOCCOCCOCCOCCOCCOCCOCCOCCOCCOCCC(=O)O; X1 = O=C(CCCC[C@@H]1SC[C@@H]2NC(=O)N[C@@H]21)NCCCOCCOCCOCCCN*; Tyr(3-NO2) = N[C@@H](Cc1ccc(O)c([N+](=O)[O-])c1)C(=O)O; Glutaryl = O=C(CCCC(=O)[*:2])[*:1]; Hyp = O=C(O)[C@@H]1C[C@@H](O)CN1; PEG4 = NCCOCCOCCOCCOCCC(=O)O; For = O=C*
# Columns and labels:
# U-138MG = assay: Flow cytometry binding to cells; design: key: ++: strong binding; +: m edium binding; +/-: weak or heterogeneous binding; -: no binding; details: Table S1, human, 1 µM biotinylated peptide, 2 mM MnCl2, on ice
# GPC-16 = assay: Flow cytometry binding to cells; design: key to the marks not given beside the values; details: 1 µM biotinylated peptide
# K562 = assay: Flow cytometry binding to cells; design: species or system Human; details: 1 µM biotinylated peptide; note: key: ++: Strong binding; +: medium binding; +/−: weak binding; −: no binding
# foreskin fibroblasts = details: flow cytometry, 1 µM biotinylated peptide
# E0771 = details: Table S1; mouse; flow cytometry, 1 µM biotinylated peptide, 2 mM MnCl2, on ice
# Protocol: (§9) from DSMZ or LGC and cultured according to the distributors’ guidelines. Human, murine or
# (§10) guinea pig leukocytes or macrophages were isolated and cultured as described below. Cells
# (§11) growing in monolayers were detached using trypsin/EDTA and then re- suspended in complete
# (§12) culture medium. After washing with washing buffer (W B: 0.9% NaCl, 10 mM Hepes, pH 7.3) at
# (§13) 4°C, cells were re-suspended at 2x10^6 cells/ml in peptide blocking b uf f er ( PBB: 0.9% NaCl,
# (§14) 10 m M H epes, pH 7.3, 5 m M KCl , 3% BSA, 5% FCS) and incubated for 10 minutes on ice
# (§15) concentration in PBB were added to equal volumes of aliquots of 1x10^5 cells, and were
# (§16) incubated f or 30 min on ice with repeated shaking to keep the cells in suspension. Except
# (§17) three times wit h 1 ml W B, followed by incubation with streptavidin labeled wit h PerCP-Cy5.5
# (§18) (BD Biosciences, 200 µg/ml; diluted 1:400 in PBB) for 15 min on ice. After one additional
# (§19) wa s h ing step with phosphate- buffered saline (PBS) at 4°C, samples were re-suspended in
# (§20) PBS with Hoechst 33258 solution (0.5 µg/ml) and analyzed using a F ACS Canto system ( at
# (§21) least 1x10^4 cells per sample were counted). Evaluations were performed using FloJo software. […]
# (§22) indicated cases the geometrical mean f luorescence was recorded. […]
# (§23) which half-maximum binding intensity was reached (KD) was calculated using Origin 9.0 […]
# leukocytes = details: Table S1; rabbit; flow cytometry, 1 µM biotinylated peptide, 2 mM MnCl2, on ice
# primary macrophages 7d = assay: Flow cytometry binding to cells; details: 1 µM biotinylated peptide; note: key: ++: Strong binding; +: medium binding; +/−: weak binding; −: no binding
# MC38 = details: Table S1; mouse; flow cytometry, 1 µM biotinylated peptide, 2 mM MnCl2, on ice
# MCF-7 = assay: Flow cytometry binding to cells; details: Table S1, human, 1 µM biotinylated peptide, 2 mM MnCl2, on ice; note: key: ++: strong binding; +: m edium binding; +/-: weak or heterogeneous binding; -: no binding
# 4T1 = details: Table S1; mouse; flow cytometry, 1 µM biotinylated peptide, 2 mM MnCl2, on ice
# Protocol: as §9, §10, §11, §12, §13, §14, §15, §16, §17, §18, §19, §20, §21, §22, §23
# primary lymphocytes = assay: Flow cytometry binding to cells; details: 1 µM biotinylated peptide; note: key: ++: Strong binding; +: medium binding; +/−: weak binding; −: no binding
# TSA = details: Table S1; mouse; flow cytometry, 1 µM biotinylated peptide, 2 mM MnCl2, on ice
# 3LL-R = details: mouse, flow cytometry, 1 µM biotinylated peptide
# [1] = system: primary macrophages 7 days; assay: Flow cytometry binding to cells; details: 1 µM biotinylated peptide; for binding to macrophages 7 days: key: ++: strong binding; +: m edium binding; +/-: weak or heterogeneous binding; -: no binding
# primary granulocytes = assay: Flow cytometry binding to cells; details: 1 µM biotinylated peptide; note: key: ++: Strong binding; +: medium binding; +/−: weak binding; −: no binding
# A549 = system: A549; design: key to the marks not given beside the values; details: Table S1; human; flow cytometry, 1 µM biotinylated peptide, 2 mM MnCl2, on ice
# EG7 = details: Table S1; mouse; flow cytometry, 1 µM biotinylated peptide, 2 mM MnCl2, on ice
# PC-3 or A431 cells = details: PC-3 or A431 cells, incubated at 37 °C, streptavidin staining
# Protocol: washed as described above and then re-suspended in Eagle’s minimum essential medium
# incubated on ice or at 37°C. At different time points after washing 50 µl samples were taken
# and added to 50 µl of Streptavidin- PerCP-Cy5.5 (diluted 1:200), incubated on ice f or 15 min,
# washed with PBS, and analyzed in PBS with Hoechst solution. Fluorescent signals were
# plotted against time between washing and streptavidin addition.
# over time after incubation on ice and at 37°C.
# labeled streptavidin as described previously f or flow cytometry assays.
# C26 = details: Table S1; mouse; flow cytometry, 1 µM biotinylated peptide, 2 mM MnCl2, on ice
# U-87MG = assay: Flow cytometry binding to cells; design: key: ++: strong binding; +: m edium binding; +/-: weak or heterogeneous binding; -: no binding; details: Table S1, human, 1 µM biotinylated peptide, 2 mM MnCl2, on ice
# A431 = assay: Flow cytometry binding to cells; design: species or system Human; key to the marks not given beside the values; details: 1 µM biotinylated peptide
# 104C1 = assay: Flow cytometry binding to cells; design: key to the marks not given beside the values; details: 1 µM biotinylated peptide
# 3LL-S = details: Table S1; mouse; flow cytometry, 1 µM biotinylated peptide, 2 mM MnCl2, on ice
# HUVEC = assay: Flow cytometry binding to cells; design: species or system Human; details: 1 µM biotinylated peptide
# PC-3 = assay: Flow cytometry binding to cells; design: species or system Human; key to the marks not given beside the values; details: 1 µM biotinylated peptide
# Hepa1–6 = details: mouse, flow cytometry, 1 µM biotinylated peptide
# NIH-3T3 = details: mouse, flow cytometry, 1 µM biotinylated peptide
# Protocol: as §9, §10, §11, §12, §13, §14, §15, §16, §17, §18, §19, §20
# least 1x10^4 cells per sample were counted). Evaluations were performed using FloJo software.
# W hole cells were gated i n a FSC/SSC plot and live gating was based on Hoechst exclusion.
# After gating out debris, aggregates and dead cells, overlay histograms in the PerCP-Cy5.5
# indicated cases the geometrical mean f luorescence was recorded.
# For determining binding affinity, a rang e of concentrations of the biotinylated compound was
# tested and the f luorescent signals were plotted against concentration. The concentration at
# which half-maximum binding intensity was reached (KD) was calculated using Origin 9.0
# sof tware and a “one site specif ic binding” fit (y =(Bmax* x) /(KD+x) ).
# f luorescent signals were plotted against competitor concentration. The concentration at which
# VX2 / J S-2-2r = assay: Flow cytometry binding to cells; design: key: ++: strong binding; +: m edium binding; +/-: weak or heterogeneous binding; -: no binding; details: Table S1, rabbit, 1 µM biotinylated peptide, 2 mM MnCl2, on ice
# PBEC = details: Table S1; pig; flow cytometry, 1 µM biotinylated peptide, 2 mM MnCl2, on ice
# HeLa = system: HeLa; design: key to the marks not given beside the values; details: Table S1; human; flow cytometry, 1 µM biotinylated peptide, 2 mM MnCl2, on ice
# L-929 = details: Table S1; mouse; flow cytometry, 1 µM biotinylated peptide, 2 mM MnCl2, on ice
# Protocol: as §9, §10, §11, §12, §13, §14, §15, §16, §17, §18, §19, §20, §21, §22, §23
# MDA-MB-231 = assay: Flow cytometry binding to cells; design: key: ++: strong binding; +: m edium binding; +/-: weak or heterogeneous binding; -: no binding; details: Table S1, human, 1 µM biotinylated peptide, 2 mM MnCl2, on ice
# primary monocytes = assay: Flow cytometry binding to cells; details: 1 µM biotinylated peptide; note: key: ++: Strong binding; +: medium binding; +/−: weak binding; −: no binding
# primary monocytes 2 days = assay: Flow cytometry binding to cells; details: 1 µM biotinylated peptide; note: key: ++: Strong binding; +: medium binding; +/−: weak binding; −: no binding
# JH4 clone 1 = assay: Flow cytometry binding to cells; design: key to the marks not given beside the values; details: 1 µM biotinylated peptide
# MHEC5-T = details: Table S1; mouse; flow cytometry, 1 µM biotinylated peptide, 2 mM MnCl2, on ice
# J774A.1 = details: mouse, flow cytometry, 1 µM biotinylated peptide
# HT-29 = assay: Flow cytometry binding to cells; design: key: ++: strong binding; +: m edium binding; +/-: weak or heterogeneous binding; -: no binding; details: Table S1, human, 1 µM biotinylated peptide, 2 mM MnCl2, on ice
# human monocytes = assay: Cytokine release assay (ELISA); assay type: cell-based; details: 6 h incubation
# Protocol: Phorbol
# (§1) 12- m yr ist oyl 13-acetate (P MA , 3 µg/ml) was used as a positive control. All samples were f ixed
# (§2) in 1% formaldehyde Hoechst 33258 solution (0.5 µg/ml) was added and cells were k ept on ice
# (§3) until analysis using a FACS Canto system. After gating for live cells and granulocytes (human
# (§4) cells) or non- lymphocytes (murine cells) in the FSC/SSC plot, rhodamine-positive cells were
# (§5) identif ied in a PE/SSC plot, using an unstimulated sample as a reference.
# (§6) Human monocytes, after an overnight pre- culture, were incubated f or 6 more hours in 1 ml
# (§7) RPMI+10% FCS containing 100 nM F2- 2PEG, 0.1 ng/ml LPS (Sigma- Aldrich), or no stimulus.
# All experiments were performed in duplicates. Supernatants were centrif uged and aliq uot s of
# 150 µl were stored at - 80 °C until cytokine levels were measured with commercially available
# ELISA kits (Ready-set-go system, eBiosciences). Cytokine concentrations in supernatants
# were measured and calculated based on the standards included wit hin the ELISA kits and as
# described by the manufacturer’s instructions. The following k its were used: Human TNFα (88-
# analysis. Measured cytok ine levels were normalized to 1 (the average of the two unstimulated
# human granulocytes = assay: Oxidative burst (dihydro-rhodamine oxidation) assay; assay type: cell-based; details: compared with the non-PEGylated effector
# Protocol: Activation of the oxidative burst (phagocyte NADPH oxidase) was measured using a
# dihydrorhodamine (DHR, Molecular Probes) oxidation assay, based on a method described
# previously1. In brief, 200 µl samples of human, murine or guinea pig leukocytes (1.25x 106
# cells/ml in HHBS + 10 mM Hepes, pH 7.3, 0.3% BSA and 5 mM EDTA) were loaded with DHR
# and catalase (Sigma-Aldrich) and cytochalasin B (Sigma-Aldrich) were added. Cells were pre-
# incubated at 37°C for 10 min followed by the addition of 50 µl of effector dilutions (5x the
# intended concentration) in the same buffer and another 15 min of incubation at 37°C. Phorbol
# as §1, §2, §3, §4, §5, §6, §7
# (§8) All experiments were performed in duplicates. […]
# mouse skin = assay: Local skin inflammation model, immune cell infiltration; assay type: in vivo; details: mouse skin, 24 h after subcutaneous injection of 100 nmol in Matrigel, HE sections
# Protocol: Animals: Eighth Edition. W ashington, DC: The National Academies Press, 2011) were […]
# Committee (LANUV AZ. 87- 51.04.2010.A278). All experiments were performed in the Institute […]
# GmbH (Sulzf eld, Germany) were used. Mice were housed in individual ventilated cages under […]
# humidity and a 12h dark/light cycle.
# Soest, Germany) was given ad libitum. Guinea pigs were housed in conventional open cages in the same way as describe for mice. Animals were allowed to acclimatize to their […]
# additional immunohistochemical stainings with antibodies against granulocytes/monocytes
# human leukocytes = assay: Chemotaxis assay; assay type: cell-based; details: compared with the non-PEGylated effector
# Protocol: Human leukocytes were re-suspended in Hank ’s Buffered Saline Solution (HBSS, without
# Ca2+, Mg 2+) with 10 mM Hepes pH 7.3 and 0.3% BSA at 10^7 cells/ml. Cells were pre-warmed
# at 37°C for 20 min. After adding the effector dilutions in the lower compartment of 24-well plates
# (800 µl/well), a Millicell culture plate insert with 5 µm pore size was placed in each well, f ollowed
# by immediate addition of 200 µl (2 million) leuk ocytes. In one well, the cells were added without
# a f ilter insert, allowing determination of the input number. The plate was incubated at 37°C and
# 5% CO2 f or 45 min. 5 mM EDTA solution was added and the plate was incubated f or another
# 10 min at 37 °C. […]
# Phorbol
# as §1, §2, §3, §4, §5, §6, §7, §8
# [2] = Table S1, guinea pig, 2 mM MnCl2, on ice
# [3] = guinea pig, 2 mM MnCl2, 30 min on ice, streptavidin-PerCP-Cy5.5
# [4] = 2 mM MnCl2, 30 min on ice, streptavidin-PerCP-Cy5.5
# [5] = Table S1, human, 2 mM MnCl2, on ice
# [6] = human, 2 mM MnCl2, 30 min on ice, streptavidin-PerCP-Cy5.5
# [7] = 100 nM F2-2PEG or 0.1 ng/ml LPS
structure (smiles),measurement,setting,value
NC(=O)C[C@@H]1NC(=O)[C@@H]2C[C@@H](O)CN2C(=O)CNC(=O)[C@H](Cc2ccc(O)c([N+](=O)[O-])c2)NC(=O)CNC(=O)[C@@H](CC(=O)O)NC(=O)[C@H](N)CSSC[C@H](C(=O)NCCOCCOCCOCCOCCC(=O)N[C@@H](CCCCNC(=O)CCCC(=O)NCCCOCCOCCOCCCNC(=O)CCCC[C@@H]2SC[C@@H]3NC(=O)N[C@@H]32)C(N)=O)NC1=O [B9-Biotin] (H-[dC][dD]G[Tyr(3-NO2)]G[Hyp]N[dC][PEG4]K([Glutaryl-X1])-NH2; disulfide 1-8),binding to U-138MG,U-138MG,++
same,binding to GPC-16,GPC-16; [2],++
same,binding to GPC-16,GPC-16; [3],++
same,binding to K562,K562; [4],−
same,binding to K562,K562; [5],-
same,binding to foreskin fibroblasts,foreskin fibroblasts; [5],-
same,binding to foreskin fibroblasts,foreskin fibroblasts; [4],−
same,binding to E0771,E0771,-
same,binding to leukocytes,leukocytes,-
same,binding to macrophages 7d,"primary macrophages 7d; Table S1, mouse, 2 mM MnCl2, on ice",-
same,binding to primary macrophages 7d,"primary macrophages 7d; mouse, 2 mM MnCl2, 30 min on ice, streptavidin-PerCP-Cy5.5",−
same,binding to MC38,MC38,-
same,binding to MCF-7,MCF-7,+
same,binding to 4T1,4T1,+
same,binding to fresh lymphocytes,primary lymphocytes; [5],-
same,binding to primary lymphocytes,primary lymphocytes; [6],−
same,binding to TSA,TSA,+
same,binding to 3LL-R,"3LL-R; Table S1, 2 mM MnCl2, on ice",+
same,binding to 3LL-R,3LL-R; [4],+
same,binding to macrophages 7 days,[1]; [5],+/-
same,binding to primary macrophages 7 days,[1]; [6],+/−
same,binding to fresh granulocytes,primary granulocytes; [5],-
same,binding to primary granulocytes,primary granulocytes; [6],−
same,binding to A549,A549,++
same,binding to EG7,EG7,-
same,streptavidin signal on cells after 5 min,PC-3 or A431 cells,no signal above background
same,binding to C26,C26,+
same,binding to U-87MG,U-87MG,++
same,binding to A431,A431; [4],++
same,binding to A431,A431; [5],++
same,binding to 104C1,104C1; [2],++
same,binding to 104C1,104C1; [3],++
same,binding to 3LL-S,3LL-S,+
same,binding to HUVEC,HUVEC; [4],+
same,binding to HUVEC,HUVEC; [5],+
same,binding to PC-3,PC-3; [4],++
same,binding to PC-3,PC-3; [5],++
same,binding to Hepa1-6,"Hepa1–6; Table S1, 2 mM MnCl2, on ice",+
same,binding to Hepa1–6,Hepa1–6; [4],+
same,binding to NIH-3T3,"NIH-3T3; Table S1, 2 mM MnCl2, on ice",+
same,binding to NIH-3T3,NIH-3T3; [4],+
same,binding to VX2 / J S-2-2r,VX2 / J S-2-2r,++
same,binding to PBEC,PBEC,+
same,binding to HeLa,HeLa,++
same,binding to L-929,L-929,-
same,binding to MDA-MB-231,MDA-MB-231,++
same,binding to fresh monocytes,primary monocytes; [5],-
same,binding to primary monocytes,primary monocytes; [6],−
same,binding to monocytes 2 days,primary monocytes 2 days; [5],-
same,binding to primary monocytes 2 days,primary monocytes 2 days; [6],−
same,binding to JH4 clone 1,JH4 clone 1; [2],++
same,binding to JH4 clone 1,JH4 clone 1; [3],++
same,binding to MHEC5-T,MHEC5-T,+
same,binding to J774A.1,"J774A.1; Table S1, 2 mM MnCl2, on ice",-
same,binding to J774A.1,J774A.1; [4],−
same,binding to HT-29,HT-29,++
CC[C@H](C)[C@H](NC(=O)[C@H](CCSC)NC=O)C(=O)N[C@@H](Cc1ccccc1)C(=O)N[C@@H](CC(C)C)C(=O)NCC(=O)NCC(=O)N[C@@H](CCCCNC(=O)CCOCCOCCOCCOCCOCCOCCOCCOCCOCCOCCOCCOCCOCCOCCOCCOCCOCCOCCOCCOCCOCCOCCOCCOCCOCCOCCOCCOCCN)C(=O)N[C@@H](CCCCNC(=O)CCOCCOCCOCCOCCOCCOCCOCCOCCOCCOCCOCCOCCOCCOCCOCCOCCOCCOCCOCCOCCOCCOCCOCCOCCOCCOCCOCCOCCN)C(=O)O [F2-2PEG] (For-MIFLGGK(PEG28)K(PEG28)-OH),IL-1β secreted,human monocytes; 100 nM F2-2PEG,increased
same,IL-6 level,human monocytes; [7],not significantly increased
same,IL-8 level,human monocytes; [7],not significantly increased
same,TNFα level,human monocytes; [7],not significantly increased
same,loss of potency for neutrophil activation (superoxide production) when linked to the PEG chains,human granulocytes,1–2 orders of magnitude
same,immune cell infiltration at the injection site,mouse skin,clearly showed infiltration by immune cells
same,loss of potency to induce chemotaxis when linked to the PEG chains,human leukocytes,1–2 orders of magnitude
